Assay results taken from ChEMBL document CHEMBL5154787 (J Med Chem, 2022).

Experiments:
[1] = Metabolic stability in human liver microsomes assessed as parent compound remaining at 0.5 uM incubated for 10 mins in presence of NADPH by LC-MS/MS analysis; format: ADME, Microsome; settings: read-out: Stability
[2] = Protein binding in rat plasma assessed as unbound fraction measured after 3 hrs by LC/MS/MS analysis; format: ADME, cell-free
[3] = Permeability across apical to basolateral side in human Caco-2 cells; format: ADME, cell-based; settings: read-out: permeability
[4] = Total body clearance in rat at 3 mg/kg, po or 2 mg/kg, iv; format: ADME, organism-based; settings: in vivo, read-out: CLt/F
[5] = molecular target: Cytochrome P450 3A4 (Homo sapiens, UniProt P08684); assay: Inhibition of […] (unknown origin) using BFC as substrate incubated for 10 mins in presence of NADPH by LC-MS/MS analysis; format: ADME
Chain of Cytochrome P450 3A4 (P08684 whole entry): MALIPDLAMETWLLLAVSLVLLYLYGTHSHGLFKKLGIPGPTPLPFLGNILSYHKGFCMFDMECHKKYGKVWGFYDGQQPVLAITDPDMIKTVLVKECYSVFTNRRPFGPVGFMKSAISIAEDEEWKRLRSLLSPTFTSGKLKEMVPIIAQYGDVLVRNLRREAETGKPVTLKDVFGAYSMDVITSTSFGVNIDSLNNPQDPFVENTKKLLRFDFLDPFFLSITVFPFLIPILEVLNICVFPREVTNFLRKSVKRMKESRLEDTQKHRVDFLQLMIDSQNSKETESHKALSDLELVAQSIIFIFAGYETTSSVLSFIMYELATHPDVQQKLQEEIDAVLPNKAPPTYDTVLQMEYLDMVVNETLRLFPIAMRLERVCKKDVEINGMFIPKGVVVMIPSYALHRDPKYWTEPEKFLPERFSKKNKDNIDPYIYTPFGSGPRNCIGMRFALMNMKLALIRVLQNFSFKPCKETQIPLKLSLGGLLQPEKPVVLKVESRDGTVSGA

[6] = molecular target: AP2-associated protein kinase 1 (Homo sapiens, UniProt Q2M2I8); assay: Inhibition of full length human AAK1 expressed in HEK293F cells assessed as suppression of AP2 phosphorylation measured after 3 hrs by Western blot analysis based cellular assay; format: cell-based
Chain of AP2-associated protein kinase 1 (Q2M2I8 whole entry): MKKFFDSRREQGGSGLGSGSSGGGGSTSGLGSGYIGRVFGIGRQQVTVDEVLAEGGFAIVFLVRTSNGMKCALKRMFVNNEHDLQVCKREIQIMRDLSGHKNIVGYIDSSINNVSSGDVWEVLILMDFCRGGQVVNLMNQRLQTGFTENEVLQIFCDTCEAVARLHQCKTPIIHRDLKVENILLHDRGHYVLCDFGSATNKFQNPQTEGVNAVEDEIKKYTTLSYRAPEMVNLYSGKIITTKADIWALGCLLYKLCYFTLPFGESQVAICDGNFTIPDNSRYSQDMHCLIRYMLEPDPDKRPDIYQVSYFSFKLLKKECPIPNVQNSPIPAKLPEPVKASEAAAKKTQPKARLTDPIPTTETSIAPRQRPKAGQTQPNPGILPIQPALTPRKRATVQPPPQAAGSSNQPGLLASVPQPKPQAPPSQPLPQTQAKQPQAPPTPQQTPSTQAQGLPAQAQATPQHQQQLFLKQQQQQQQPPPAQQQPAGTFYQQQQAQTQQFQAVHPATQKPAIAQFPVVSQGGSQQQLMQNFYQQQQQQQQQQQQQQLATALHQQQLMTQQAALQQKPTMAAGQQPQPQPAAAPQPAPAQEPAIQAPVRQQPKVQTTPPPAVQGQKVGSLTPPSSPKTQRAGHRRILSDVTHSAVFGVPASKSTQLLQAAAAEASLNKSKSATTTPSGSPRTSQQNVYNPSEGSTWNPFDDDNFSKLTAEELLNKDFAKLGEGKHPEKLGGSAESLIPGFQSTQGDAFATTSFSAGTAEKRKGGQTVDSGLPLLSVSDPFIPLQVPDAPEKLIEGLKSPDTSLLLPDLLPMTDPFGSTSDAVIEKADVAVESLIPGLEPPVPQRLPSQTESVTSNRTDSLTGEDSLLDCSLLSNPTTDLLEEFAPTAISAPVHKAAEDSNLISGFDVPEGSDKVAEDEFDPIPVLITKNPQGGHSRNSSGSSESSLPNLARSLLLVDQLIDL

[7] = Volume of distribution at steady state in rat at 3 mg/kg,po or 2 mg/kg,iv; format: ADME, organism-based; settings: in vivo
[8] = molecular target: T1, Cytochrome P450 2B6 (Homo sapiens, UniProt P20813); assay: Inhibition of CYP2B6 (unknown origin) incubated for 10 mins in presence of NADPH by LC-MS/MS analysis; format: ADME
T1 sequence (P20813 whole entry): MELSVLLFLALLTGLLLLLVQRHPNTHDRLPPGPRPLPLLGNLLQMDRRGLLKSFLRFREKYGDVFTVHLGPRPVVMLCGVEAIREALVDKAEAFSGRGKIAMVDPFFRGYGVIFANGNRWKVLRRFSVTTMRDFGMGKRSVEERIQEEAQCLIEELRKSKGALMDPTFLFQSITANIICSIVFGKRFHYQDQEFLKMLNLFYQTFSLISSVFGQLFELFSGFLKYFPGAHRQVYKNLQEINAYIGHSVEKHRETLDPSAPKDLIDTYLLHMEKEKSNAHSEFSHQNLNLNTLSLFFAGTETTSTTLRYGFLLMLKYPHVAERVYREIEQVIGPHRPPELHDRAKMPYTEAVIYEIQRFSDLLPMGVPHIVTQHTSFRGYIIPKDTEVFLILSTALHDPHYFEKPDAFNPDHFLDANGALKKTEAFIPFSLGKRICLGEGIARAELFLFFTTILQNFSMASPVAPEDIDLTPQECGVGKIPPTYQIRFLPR

[9] = Metabolic stability in dog microsomes assessed as half life incubated at 0.5 uM for 10 mins in presence of NADPH by LC-MS/MS analysis; format: ADME, Canis lupus familiaris, Liver, Microsome
[10] = molecular target: BMP-2-inducible protein kinase (Homo sapiens, UniProt Q9NSY1); assay: Inhibition of BIKE (unknown origin)
Chain of BMP-2-inducible protein kinase (Q9NSY1 whole entry): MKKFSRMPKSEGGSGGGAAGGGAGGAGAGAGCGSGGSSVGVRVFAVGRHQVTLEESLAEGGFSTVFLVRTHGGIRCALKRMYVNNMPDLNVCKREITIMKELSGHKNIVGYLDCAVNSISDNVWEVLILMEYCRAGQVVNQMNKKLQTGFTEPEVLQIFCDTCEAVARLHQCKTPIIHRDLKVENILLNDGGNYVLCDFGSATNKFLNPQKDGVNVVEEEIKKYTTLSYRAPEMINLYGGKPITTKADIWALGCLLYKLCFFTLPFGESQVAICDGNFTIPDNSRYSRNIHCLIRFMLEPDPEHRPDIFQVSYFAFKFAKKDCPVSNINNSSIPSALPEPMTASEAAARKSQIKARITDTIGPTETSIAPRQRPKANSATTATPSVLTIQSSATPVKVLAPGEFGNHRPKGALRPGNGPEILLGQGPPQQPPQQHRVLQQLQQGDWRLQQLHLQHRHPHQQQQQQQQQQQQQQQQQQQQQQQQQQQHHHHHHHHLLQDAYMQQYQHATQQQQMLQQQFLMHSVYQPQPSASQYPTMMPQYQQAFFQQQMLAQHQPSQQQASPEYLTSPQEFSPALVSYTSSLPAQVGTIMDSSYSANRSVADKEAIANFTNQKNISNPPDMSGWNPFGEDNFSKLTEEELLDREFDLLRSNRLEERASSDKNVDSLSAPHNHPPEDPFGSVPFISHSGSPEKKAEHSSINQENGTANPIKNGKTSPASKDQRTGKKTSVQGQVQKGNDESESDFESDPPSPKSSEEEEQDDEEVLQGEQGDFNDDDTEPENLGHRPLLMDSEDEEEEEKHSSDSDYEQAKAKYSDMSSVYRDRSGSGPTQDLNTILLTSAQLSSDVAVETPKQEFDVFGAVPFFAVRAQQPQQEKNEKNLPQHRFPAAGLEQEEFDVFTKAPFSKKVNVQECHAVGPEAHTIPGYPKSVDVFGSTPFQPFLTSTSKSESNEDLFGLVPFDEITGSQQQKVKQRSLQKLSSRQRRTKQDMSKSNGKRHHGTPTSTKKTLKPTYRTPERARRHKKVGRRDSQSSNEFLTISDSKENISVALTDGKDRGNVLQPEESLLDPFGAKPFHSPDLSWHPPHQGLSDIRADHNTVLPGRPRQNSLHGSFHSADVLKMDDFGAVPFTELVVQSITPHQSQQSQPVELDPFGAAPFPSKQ

[11] = Inhibition of calcium channel (unknown origin); set-up: species or system Homo sapiens
[12] = Metabolic stability in cynomolgus monkey liver microsomes assessed as half life incubated at 0.5 uM for 10 mins in presence of NADPH by LC-MS/MS analysis; format: ADME, Macaca fascicularis, Microsome
[13] = molecular target: Cytochrome P450 2C9 (Homo sapiens, UniProt P11712); assay: Inhibition of CYP2C9 (unknown origin) incubated for 10 mins in presence of NADPH by LC-MS/MS analysis; format: ADME
Chain of Cytochrome P450 2C9 (P11712 whole entry): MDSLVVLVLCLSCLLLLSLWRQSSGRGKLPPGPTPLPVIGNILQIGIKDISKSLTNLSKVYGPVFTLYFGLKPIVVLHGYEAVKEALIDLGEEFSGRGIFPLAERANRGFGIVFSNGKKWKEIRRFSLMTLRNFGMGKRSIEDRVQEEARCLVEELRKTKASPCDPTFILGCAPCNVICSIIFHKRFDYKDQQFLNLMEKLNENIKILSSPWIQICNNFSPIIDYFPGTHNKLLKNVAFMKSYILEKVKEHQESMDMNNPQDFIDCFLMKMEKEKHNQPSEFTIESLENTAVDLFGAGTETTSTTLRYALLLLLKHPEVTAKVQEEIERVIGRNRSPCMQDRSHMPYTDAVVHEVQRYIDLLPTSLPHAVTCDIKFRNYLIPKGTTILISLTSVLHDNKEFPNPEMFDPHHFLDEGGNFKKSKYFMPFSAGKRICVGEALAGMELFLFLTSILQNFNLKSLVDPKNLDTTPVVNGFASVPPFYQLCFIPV

[14] = Metabolic stability in mouse liver microsomes assessed as parent compound remaining at 0.5 uM incubated for 10 mins in presence of NADPH by LC-MS/MS analysis; format: ADME, Microsome; settings: for remaining at 10 min, 0.5 µM: liver microsomes, read-out: Stability
[15] = molecular target: T2, Cyclin-G-associated kinase (Homo sapiens, UniProt O14976); assay: Inhibition of GAK (unknown origin)
T2 sequence (O14976 whole entry): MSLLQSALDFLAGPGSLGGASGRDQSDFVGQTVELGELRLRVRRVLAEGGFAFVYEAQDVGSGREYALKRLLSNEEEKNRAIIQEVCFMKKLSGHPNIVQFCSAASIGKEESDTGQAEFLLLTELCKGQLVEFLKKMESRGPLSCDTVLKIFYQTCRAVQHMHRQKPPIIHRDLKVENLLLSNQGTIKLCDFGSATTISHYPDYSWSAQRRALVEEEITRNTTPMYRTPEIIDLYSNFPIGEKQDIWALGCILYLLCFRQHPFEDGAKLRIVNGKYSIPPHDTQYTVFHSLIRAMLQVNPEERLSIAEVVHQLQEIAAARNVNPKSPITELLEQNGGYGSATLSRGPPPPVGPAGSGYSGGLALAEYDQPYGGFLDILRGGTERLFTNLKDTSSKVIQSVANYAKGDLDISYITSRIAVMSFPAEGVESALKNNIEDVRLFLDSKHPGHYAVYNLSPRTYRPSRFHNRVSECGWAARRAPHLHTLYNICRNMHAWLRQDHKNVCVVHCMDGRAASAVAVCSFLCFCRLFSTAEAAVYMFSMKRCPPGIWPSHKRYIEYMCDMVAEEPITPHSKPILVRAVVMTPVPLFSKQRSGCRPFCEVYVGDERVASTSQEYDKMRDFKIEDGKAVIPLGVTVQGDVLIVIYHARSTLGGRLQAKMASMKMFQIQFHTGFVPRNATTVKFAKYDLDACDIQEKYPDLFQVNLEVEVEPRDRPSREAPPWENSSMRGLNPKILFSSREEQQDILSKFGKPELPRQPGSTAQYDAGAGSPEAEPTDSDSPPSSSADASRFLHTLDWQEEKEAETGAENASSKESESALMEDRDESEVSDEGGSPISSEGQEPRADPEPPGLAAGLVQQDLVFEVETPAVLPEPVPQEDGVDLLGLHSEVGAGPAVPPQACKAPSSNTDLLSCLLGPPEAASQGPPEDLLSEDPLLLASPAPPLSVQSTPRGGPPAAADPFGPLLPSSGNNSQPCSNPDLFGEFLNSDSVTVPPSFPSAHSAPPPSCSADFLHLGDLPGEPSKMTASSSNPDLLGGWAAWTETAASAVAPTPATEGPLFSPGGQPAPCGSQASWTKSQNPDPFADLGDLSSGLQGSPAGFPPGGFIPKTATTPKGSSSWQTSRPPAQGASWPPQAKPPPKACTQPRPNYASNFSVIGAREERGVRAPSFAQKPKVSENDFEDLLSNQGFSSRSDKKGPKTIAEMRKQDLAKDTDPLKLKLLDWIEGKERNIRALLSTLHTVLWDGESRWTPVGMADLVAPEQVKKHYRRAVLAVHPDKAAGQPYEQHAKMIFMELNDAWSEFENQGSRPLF

[16] = Cardiotoxicity in aortic ring (unknown origin) assessed as relaxation of phenylephrine induced aortic ring contraction at 10 uM incubated for 1 hr; format: toxicity, tissue-based, Aorta; set-up: scale not given: the % may be the effect or the level left; settings: human
[17] = Metabolic stability in human liver microsomes assessed as half life incubated at 0.5 uM for 10 mins in presence of NADPH by LC-MS/MS analysis; format: ADME, Microsome
[18] = Inhibition of sodium channel voltage-sensing domain (unknown origin); set-up: species or system Homo sapiens
[19] = Protein binding in human plasma assessed as unbound fraction measured after 3 hrs by LC/MS/MS analysis; format: ADME, cell-free

SMILES	remaining at 10 min, 0.5 µM [1] [%]	fraction unbound at 3 h [2]	Papp A→B [3] [×10⁻⁶ cm/s]	CL/F [4] [mL/min/kg]	IC50 [5] [µM]	IC50 [6] [µM]	Vdss [7] [L/kg]	IC50 [8] [µM]	half-life at 0.5 µM [9] [h]	IC50 [10] [µM]	IC50 [11] [µM]	half-life at 0.5 µM [12] [h]	IC50 [13] [µM]	remaining at 10 min, 0.5 µM [14] [%]	IC50 [15] [µM]	Activity [16] [%]	half-life at 0.5 µM [17] [h]	IC50 [18] [µM]	fraction unbound at 3 h [19]	Stability ([14]; microsomes, 10 min, 0.5 µM) [%]
COC(=O)Nc1cc(-c2ccc(OC[C@@](C)(N)CC(C)C)c(C)n2)ccn1	95	0.225	35.7	17.3	> 20	0.0024	16.3	> 20	1.68	0.09	16	0.85	> 20	93	0.21	36	> 2	39	0.18	–
COC(=O)Nc1cc(-c2cnc(OC[C@@](C)(N)CC(C)C)c(C)c2)ccn1	92	0.105	17.2	63.6	> 20	0.0034	30.9	> 20	> 2	0.01	35.3	1.28	> 20	–	0.44	66	> 2	11.5	0.115	68
CC(C)C[C@](C)(N)COc1cnc(-c2ccnc(C(F)F)c2)cc1C(F)F	89	0.122	23.5	119	> 20	0.0005	41.3	> 20	0.433	0.18	18.8	0.293	> 20	89	0.4	58	> 2	7.4	0.125	–
